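All cell lines were grown in 96-well plates and treated with compound for 48 hours. GI50 marks 50% less growth.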 Activity calls are given as the source filed them. Cut-off read from the data, not from the text of the source: active = GI50 up to about 1.1 µM and inactive = higher.
Experiments:
Assay in all cases: inhibition of tumour cell growth, NCI panel, 48 h
SF-539 = system: SF-539
MDA-N = system: MDA-N
Hs-578T = system: Hs-578T
SNB-19 = system: SNB-19
SK-MEL-2 = system: SK-MEL-2
OVCAR-5 = system: OVCAR-5
A549 = system: A549
OVCAR-4 = system: OVCAR-4
EKVX = system: EKVX
ACHN = system: ACHN
SR = system: SR
UACC-62 = system: UACC-62
NCI-H460 = system: NCI-H460
CAKI-1 = system: CAKI-1
786-0 = system: 786-0
OVCAR-3 = system: OVCAR-3
NCI-H226 = system: NCI-H226
LOX IMVI = system: LOX IMVI
OVCAR-8 = system: OVCAR-8
CCRF-CEM = system: CCRF-CEM

Row | SMILES | GI50 (SF-539) | GI50 (MDA-N) | GI50 (Hs-578T) | GI50 (SNB-19) | GI50 (SK-MEL-2) | GI50 (OVCAR-5) | GI50 (A549) | GI50 (OVCAR-4) | GI50 (EKVX) | GI50 (ACHN) | GI50 (SR) | GI50 (UACC-62) | GI50 (NCI-H460) | GI50 (CAKI-1) | GI50 (786-0) | GI50 (OVCAR-3) | GI50 (NCI-H226) | GI50 (LOX IMVI) | GI50 (OVCAR-8) | GI50 (CCRF-CEM)
1 | O=C(/C=C/c1ccc(O)c(O)c1)OCCCc1ccccc1 | 2.45 µM (inactive) | 11.8 µM (inactive) | 28.4 µM (inactive) | 15 µM (inactive) | 17.5 µM (inactive) | 18.4 µM (inactive) | 14.3 µM (inactive) | 6.67 µM (inactive) | 25.8 µM (inactive) | 5.32 µM (inactive) | 5.69 µM (inactive) | 9.84 µM (inactive) | 20.2 µM (inactive) | 20.6 µM (inactive) | 4.39 µM (inactive) | 1.71 µM (inactive) | 16 µM (inactive) | 12.3 µM (inactive) |  | 
2 | N/C(=N\c1ccc(Cl)cc1)NS(=O)(=O)c1c(C(F)(F)F)cccc1C(F)(F)F | 41.3 µM (inactive) | 22.2 µM (inactive) | 17.9 µM (inactive) | 18.9 µM (inactive) | 12.7 µM (inactive) | 20.2 µM (inactive) | 12.6 µM (inactive) | 17.5 µM (inactive) | 5.93 µM (inactive) | 14.5 µM (inactive) | > 100 µM (inactive) | 8.34 µM (inactive) | 14.5 µM (inactive) |  | 24.8 µM (inactive) | 16.6 µM (inactive) | 27.6 µM (inactive) | 16.3 µM (inactive) | 20.7 µM (inactive) | 
3 | Cn1c2ccccc2c(=O)c2c(O)cc3c(c21)C1OCC(C)(O)C1O3 (centres undefined) | 21.6 µM (inactive) | > 100 µM (inactive) | 6.47 µM (inactive) | 26.6 µM (inactive) | 28.3 µM (inactive) | 19.5 µM (inactive) | 61.8 µM (inactive) | > 100 µM (inactive) | 7.48 µM (inactive) | 67.8 µM (inactive) | 46.7 µM (inactive) | > 10 µM (inactive) | > 10 µM (inactive) | 30.7 µM (inactive) | 39.2 µM (inactive) |  | 10.5 µM (inactive) |  | 34 µM (inactive) | 23.8 µM (inactive)
4 | S=C(Nc1ccc2c(c1)oc1ccccc12)c1cccs1 | 26.2 µM (inactive) | > 100 µM (inactive) | 29.8 µM (inactive) | 38.1 µM (inactive) | > 100 µM (inactive) | > 100 µM (inactive) | 66.7 µM (inactive) | 30.6 µM (inactive) | 38.5 µM (inactive) | > 100 µM (inactive) | 4.25 µM (inactive) | 82.8 µM (inactive) |  | 52.8 µM (inactive) | 11.3 µM (inactive) | 23 µM (inactive) | > 100 µM (inactive) | 7.73 µM (inactive) | 18.7 µM (inactive) | > 100 µM (inactive)
5 | O=C1O/C(=C\c2ccccc2)N(c2ccccc2)C1=O |  | > 100 µM (inactive) | > 100 µM (inactive) | > 100 µM (inactive) | > 100 µM (inactive) | > 100 µM (inactive) | > 100 µM (inactive) | > 100 µM (inactive) | > 100 µM (inactive) | > 100 µM (inactive) | > 100 µM (inactive) | > 100 µM (inactive) | > 100 µM (inactive) | > 100 µM (inactive) | > 100 µM (inactive) | > 100 µM (inactive) | > 100 µM (inactive) | > 100 µM (inactive) | > 100 µM (inactive) | > 100 µM (inactive)
6 | Nc1ccc(C(=O)N/C(=C\c2cccc([N+](=O)[O-])c2)c2nc3c(O)nc(S)nc3[nH]2)cc1 | 18.5 µM (inactive) | > 100 µM (inactive) | 29.9 µM (inactive) | 42 µM (inactive) | 53.7 µM (inactive) | > 100 µM (inactive) | 74.3 µM (inactive) | > 100 µM (inactive) | > 84.9 µM (inactive) | > 76.2 µM (inactive) | > 100 µM (inactive) | 41.9 µM (inactive) | > 100 µM (inactive) | > 100 µM (inactive) | 24.5 µM (inactive) | > 100 µM (inactive) | > 51.8 µM (inactive) | > 92.7 µM (inactive) | 31 µM (inactive) | > 100 µM (inactive)
7 | COc1cc(/C=C2/SC(c3ccccc3)N(Cc3ccccc3)C2=O)cc(OC)c1OC (centres undefined) |  | 29.6 µM (inactive) | 40.6 µM (inactive) | > 100 µM (inactive) | 47.8 µM (inactive) | 80.9 µM (inactive) | 67 µM (inactive) | 31.4 µM (inactive) | 42.9 µM (inactive) | 44.8 µM (inactive) | 14.2 µM (inactive) | 42.5 µM (inactive) | 38.2 µM (inactive) | > 100 µM (inactive) | 33.2 µM (inactive) | 33.7 µM (inactive) | 53.7 µM (inactive) | 34.8 µM (inactive) | 37.7 µM (inactive) | 
8 | CCN(CC)C(=S)N/N=C/c1cc([N+](=O)[O-])ccc1O | 6.15 µM (inactive) | 5.43 µM (inactive) | 53.2 µM (inactive) | 9.16 µM (inactive) | 16.4 µM (inactive) | 24.3 µM (inactive) | 12.8 µM (inactive) | 3.65 µM (inactive) | 4.56 µM (inactive) | 3.36 µM (inactive) | 1.74 µM (inactive) | 3.27 µM (inactive) | 3 µM (inactive) |  | 2.99 µM (inactive) | 0.0528 µM (active) | 2.31 µM (inactive) | 3.01 µM (inactive) | 3.56 µM (inactive) | 1.26 µM (inactive)

From ChEMBL document CHEMBL1201862, “PubChem BioAssay data set” (2004)
